Like-named read-outs stand apart in the source and are kept apart here.
Key:
human recombinant BACE1 = human recombinant BACE1 (Homo sapiens (Human), UniProt P56817); experiment: In vitro enzymatic BACE1 FRET assay; type: biochemical; conditions: read-out: BACE1 Enzyme IC50
Description: (§1) In Vitro Enzymatic BACE1 and BACE2 FRET (Fluorescence Resonance Energy Transfer) Assays […] These recombinant proteins were further purified using Ni-NTA affinity chromatography (Qiagen). […] The assay was effectively started by the addition of FRET substrate (50 nM) and the combination was incubated for one hour. The FRET assay was terminated by the addition of tris buffer, which raised the pH to neutrality, and the fluorescence was determined. The FRET substrate was a peptide with commercially available fluorophore and quencher, on opposite sides of the BACE cleavage site. The specific FRET substrate used in this assay was made by Amgen in-house. Commercially available FRET substrates, for example, the FRET substrate offered with the BACE1 FRET Assay Kit sold by ThermoFisher Scientific (Catalog Number P2985), may be used in this assay with the appropriate modifications, which are within the purview of the ability of a person with ordinary skill in the art. Proteolytic cleavage of the FRET substrate released quenching of fluorescence (excitation 488 nm and emission 590 nm).

[1] = test system: BACE1 (Aβ40 from cells stably expressing Amyloid Precursor Protein); experiment: In vitro BACE1 cell-based assay (Aβ40 in conditioned medium, HTRF)
Description: In Vitro BACE1 Cell-Based Assay The cell-based assay measures inhibition or reduction of Aβ40 in conditioned medium of test compound treated cells expressing amyloid precursor protein. Cells stably expressing Amyloid Precursor Protein (APP) were plated at a density of 45K cells/well in 384 well plates (Corning/BioCoat 354663). The test compounds were then added to cells in 22-point dose response concentrations with the starting concentration being 62.5 μM. The compounds were diluted from stock solutions in DMSO and the final DMSO concentration of the test compounds on cells was 0.625%. The cells were cultivated overnight at 37° C. and 5% CO2 in DMEM supplemented with 10% FBS. After 24 h of incubation with the test compounds, the conditioned media was collected and the Aβ40 levels were determined using HTRF (Homogeneous Time Resolved Fluorescence). […] The HTRF to detect Aβ40 was performed in 384 well plates (Costar 3658). The antibody pair that were used to detect Aβ 40 from cell supernatants were ConfAb40 antibody (Amgen in-house) and biotinylated 6E10 (BIOLEGEND). As an alternative to ConfAb40, a commercially available antibody, Anti-beta Amyloid 1-40 antibody [BDI350] from Abcam, Cambridge, Mass. 02139-1517 (Product code: ab20068), may be used in this assay. […] The conditioned media was incubated with above antibodies and Streptavidin Allophycocyanin Conjugate for 30-60 minutes at 23° C. The final readout was performed on Envision from PerkinElmer.

human recombinant BACE2 = human recombinant BACE2 (Homo sapiens (Human), UniProt Q9Y5Z0); experiment: In vitro enzymatic BACE2 FRET assay; type: biochemical; conditions: read-out: BACE2 Enzyme IC50
Description: as §1

Recombinant CatD = Recombinant CatD (Homo sapiens (Human), UniProt P07339); experiment: In vitro enzymatic Cathepsin D (CatD) FRET assay; type: biochemical; conditions: read-out: Cat D Enzyme IC50
Description: In Vitro Enzymatic Cathepsin D (CatD) FRET Assay Recombinant CatD was expressed in CHO cells. The assay buffer for CatD was 0.05 M citrate pH 3.5, 10% DMSO final, 5 mM CHAPS. […] The assays was effectively started by the addition of different FRET substrates (20 nM for CatD) and the combination was incubated for one hour. The FRET assay was terminated with by addition of tris buffer, which raises the pH to neutrality, and the fluorescence was determined. The FRET substrate was a peptide with commercially available fluorophore and quencher, on opposite sides of the CatD cleavage site. The CatD substrate peptide sequence was based on sequence #1 of Table 1 from Gulnik et al., FEBS Lett. 413(2):379-384 (1997). Proteolytic cleavage of the FRET substrate released quenching of fluorescence (CatD excitation 500 nm and emission 580 nm). The in vitro CatD FRET assay data for each of the Examples is provided in Table 2, conducted by the first procedure described above. […] Thus, with this surprising selectivity profile, the compounds provided herein are believed to minimize, reduce or completely eliminate any risk of retinal atrophy and abnormal development of the eye and of the retinal pigmented epithelium as it relates to the normal function and activity of CatD.

[2] = Aβ40, 24 h incubation, read-out: BACE1 Cell IC50

Sequence of human recombinant BACE2 (Q9Y5Z0 63-518): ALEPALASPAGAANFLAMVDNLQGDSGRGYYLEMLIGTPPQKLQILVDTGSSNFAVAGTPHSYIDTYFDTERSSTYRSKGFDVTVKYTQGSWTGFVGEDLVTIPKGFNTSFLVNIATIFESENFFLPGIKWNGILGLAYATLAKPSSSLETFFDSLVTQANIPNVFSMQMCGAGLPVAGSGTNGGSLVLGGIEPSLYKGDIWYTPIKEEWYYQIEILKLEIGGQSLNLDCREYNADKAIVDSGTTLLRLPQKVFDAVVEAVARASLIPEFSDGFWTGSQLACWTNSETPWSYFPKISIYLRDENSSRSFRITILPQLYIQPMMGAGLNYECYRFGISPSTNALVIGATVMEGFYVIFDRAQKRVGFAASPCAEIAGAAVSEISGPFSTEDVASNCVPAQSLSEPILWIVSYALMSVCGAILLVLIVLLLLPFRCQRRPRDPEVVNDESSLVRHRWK
Sequence of human recombinant BACE1 (P56817 46-501): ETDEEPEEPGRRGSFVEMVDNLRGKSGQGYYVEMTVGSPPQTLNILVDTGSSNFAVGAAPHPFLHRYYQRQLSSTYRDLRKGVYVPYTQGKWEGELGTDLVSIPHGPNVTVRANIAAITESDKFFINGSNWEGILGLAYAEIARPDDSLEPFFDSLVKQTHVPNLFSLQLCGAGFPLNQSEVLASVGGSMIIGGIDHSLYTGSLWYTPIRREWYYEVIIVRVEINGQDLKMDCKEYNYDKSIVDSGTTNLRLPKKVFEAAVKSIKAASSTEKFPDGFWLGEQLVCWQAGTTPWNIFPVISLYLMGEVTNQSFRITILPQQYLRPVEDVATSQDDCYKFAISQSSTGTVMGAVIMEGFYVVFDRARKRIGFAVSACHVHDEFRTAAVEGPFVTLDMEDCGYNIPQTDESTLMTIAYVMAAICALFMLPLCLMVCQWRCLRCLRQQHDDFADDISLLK
Sequence of Recombinant CatD (P07339 65-412): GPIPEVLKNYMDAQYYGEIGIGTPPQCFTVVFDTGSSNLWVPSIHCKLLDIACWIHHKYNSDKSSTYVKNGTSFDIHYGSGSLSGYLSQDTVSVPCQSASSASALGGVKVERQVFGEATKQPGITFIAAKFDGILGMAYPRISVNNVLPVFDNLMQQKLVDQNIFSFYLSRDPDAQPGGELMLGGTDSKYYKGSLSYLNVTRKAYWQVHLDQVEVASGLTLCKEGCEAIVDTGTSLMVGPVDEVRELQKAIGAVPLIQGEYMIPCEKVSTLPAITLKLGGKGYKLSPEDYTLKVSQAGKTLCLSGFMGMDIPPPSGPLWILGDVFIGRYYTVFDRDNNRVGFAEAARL

| IC50 (human recombinant BACE1) | IC50 [1, 2] | IC50 (human recombinant BACE2) | IC50 (Recombinant CatD) | Structure (SMILES) | IC50 ([1]; 24 h, read-out: BACE1 Cell IC50 (μM)) |
| --- | --- | --- | --- | --- | --- |
| 86.2 nM | 0.161 µM | 9720 nM | 237000 nM | N#Cc1ccc(/C(F)=C/c2ccc(F)c([C@@]34CO[C@@H](C(F)(F)F)[C@@H]3COC(N)=N4)c2)nc1 (racemic) [Example 141, 6-((Z)-2-(3-((4aR,5S,7aS)-2-amino-5-(trifluoromethyl)-4a,5,7,7a-tetrahydro-4H-furo[3,4-d][1,3]oxazin-7a-yl)-4-fluorophenyl)-1-fluorovinyl)nicotinonitrile and 6-((Z)-2-(3-((4aS,5R,7aR)-2-amino-5-(trifluoromethyl)-4a,5,7,7a-tetrahydro-4H-furo[3,4-d][1,3]oxazin-7a-yl)-4-fluorophenyl)-1-fluorovinyl)nicotinonitrile] | – |
| 37.2 nM | 0.0588 µM | 3540 nM | > 400000 nM | N#Cc1ccc(/C(F)=C/c2ccc(F)c([C@]34CO[C@H](C(F)(F)F)[C@H]3COC(N)=N4)c2)nc1 (single isomer, unassigned) [Example 142] | – |
| 9010 nM | 53.5 µM | 140000 nM | 95600 nM | N#Cc1ccc(/C(F)=C/c2ccc(F)c([C@@]34CO[C@@H](C(F)(F)F)[C@@H]3COC(N)=N4)c2)nc1 (single isomer, unassigned) [Example 143] | – |
| 0.149 nM | 0.000311 µM | 5.49 nM | 7600 nM | C#CCOc1cnc(/C(F)=C/c2ccc(F)c([C@]34CN(c5ncc(F)cn5)C[C@H]3CSC(N)=N4)c2)cn1 (stereo in doubt) [Example 109, (4aR,7aS)-7a-(2-fluoro-5-((Z)-2-fluoro-2-(5-(prop-2-yn-1-yloxy)pyrazin-2-yl)vinyl)phenyl)-6-(5-fluoropyrimidin-2-yl)-4,4a,5,6,7,7a-hexahydropyrrolo[3,4-d][1,3]thiazin-2-amine] | – |
| 1.56 nM | 0.00411 µM | 85.5 nM | 4500 nM | Cc1noc(COc2cnc(/C(F)=C/c3ccc(F)c([C@]45CN(c6ncc(F)cn6)C[C@H]4CSC(N)=N5)c3)cn2)n1 (stereo in doubt) [Example 110, (4aR,7aS)-7a-(2-fluoro-5-((Z)-2-fluoro-2-(5-((3-methyl-1,2,4-oxadiazol-5-yl)methoxy)pyrazin-2-yl)vinyl)phenyl)-6-(5-fluoropyrimidin-2-yl)-4,4a,5,6,7,7a-hexahydropyrrolo[3,4-d][1,3]thiazin-2-amine] | – |
| 0.241 nM | 0.000682 µM | 3.08 nM | 118000 nM | N#Cc1ccc(/C(F)=C/c2ccc(F)c([C@]34CN(c5ncc(F)cn5)C[C@H]3CSC(N)=N4)c2)nc1 [Example 102, 6-((Z)-2-(3-((4aR,7aS)-2-amino-6-(5-fluoropyrimidin-2-yl)-4,4a,5,6,7,7a-hexahydropyrrolo[3,4-d][1,3]thiazin-7a-yl)-4-fluorophenyl)-1-fluorovinyl)nicotinonitrile] | – |
| 1.86 nM | 0.00545 µM | 27.2 nM | 246000 nM | N#Cc1ccc(/C(F)=C/c2ccc(F)c([C@@]34CN(c5ncc(F)cn5)C[C@@H]3CSC(N)=N4)c2)nc1 [Example 103, 6-((Z)-2-(3-((4aS,7aR)-2-amino-6-(5-fluoropyrimidin-2-yl)-4,4a,5,6,7,7a-hexahydropyrrolo[3,4-d][1,3]thiazin-7a-yl)-4-fluorophenyl)-1-fluorovinyl)nicotinonitrile] | – |
| 804 nM | 2.26 µM | 7480 nM | 654000 nM | NC1=N[C@]2(c3cc(/C=C(\F)c4ccc(Cl)cn4)ccc3F)COC[C@@H]2CS1 [Example 104, (4aR,7aR)-7a-(5-((Z)-2-(5-chloropyridin-2-yl)-2-fluorovinyl)-2-fluorophenyl)-4a,5,7,7a-tetrahydro-4H-furo[3,4-d][1,3]thiazin-2-amine] | – |
| 64.4 nM | 0.129 µM | 56.9 nM | 181000 nM | NC1=N[C@@]2(c3cc(/C=C(\F)c4ccc(Cl)cn4)ccc3F)COC[C@H]2CS1 [Example 105, (4aS,7aS)-7a-(5-((Z)-2-(5-chloropyridin-2-yl)-2-fluorovinyl)-2-fluorophenyl)-4a,5,7,7a-tetrahydro-4H-furo[3,4-d][1,3]thiazin-2-amine] | – |
| 502 nM | 0.985 µM | 6390 nM | 815000 nM | N#Cc1ccc(/C(F)=C/c2ccc(F)c([C@@]34COC[C@@H]3CSC(N)=N4)c2)nc1 [Example 106, 6-((Z)-2-(3-((4aR,7aR)-2-amino-4a,5,7,7a-tetrahydro-4H-furo[3,4-d][1,3]thiazin-7a-yl)-4-fluorophenyl)-1-fluorovinyl)nicotinonitrile] | – |
| 11.7 nM | 0.041 µM | 279 nM | > 400000 nM | N#Cc1ccc(/C(F)=C/c2ccc(F)c([C@]34COC[C@H]3CSC(N)=N4)c2)nc1 [Example 107, 6-((Z)-2-(3-((4aS,7aS)-2-amino-4a,5,7,7a-tetrahydro-4H-furo[3,4-d][1,3]thiazin-7a-yl)-4-fluorophenyl)-1-fluorovinyl)nicotinonitrile] | – |
| 2.71 nM | 0.016 µM | 34 nM | 14800 nM | COc1cnc(/C(F)=C/c2ccc(F)c([C@]34CN(c5ncc(F)cn5)C[C@H]3CSC(N)=N4)c2)cn1 [Example 108, (4aR,7aS)-7a-(2-fluoro-5-((Z)-2-fluoro-2-(5-methoxypyrazin-2-yl)vinyl)phenyl)-6-(5-fluoropyrimidin-2-yl)-4,4a,5,6,7,7a-hexahydropyrrolo[3,4-d][1,3]thiazin-2-amine] | – |
| 0.32 nM | 0.000807 µM | 5.18 nM | 19600 nM | N#Cc1cnc(/C(F)=C/c2ccc(F)c([C@]34CN(c5ncc(F)cn5)C[C@H]3CSC(N)=N4)c2)cn1 [Example 111, 5-((Z)-2-(3-((4aR,7aS)-2-amino-6-(5-fluoropyrimidin-2-yl)-4,4a,5,6,7,7a-hexahydropyrrolo[3,4-d][1,3]thiazin-7a-yl)-4-fluorophenyl)-1-fluorovinyl)pyrazine-2-carbonitrile] | – |

| Structure (SMILES) | IC50 (human recombinant BACE1) | IC50 [1, 2] | IC50 (human recombinant BACE2) | IC50 (Recombinant CatD) | IC50 ([1]; 24 h, read-out: BACE1 Cell IC50 (μM)) |
| --- | --- | --- | --- | --- | --- |
| NC1=N[C@]2(c3cc(/C=C(\F)c4ccc(Cl)cn4)ccc3F)CN(c3ncc(F)cn3)C[C@@H]2CS1 [Example 100, (4aS,7aR)-7a-(5-((Z)-2-(5-chloropyridin-2-yl)-2-fluorovinyl)-2-fluorophenyl)-6-(5-fluoropyrimidin-2-yl)-4,4a,5,6,7,7a-hexahydropyrrolo[3,4-d][1,3]thiazin-2-amine] | 847 nM | – | 495 nM | 544000 nM | 1.25 µM |
| NC1=N[C@@]2(c3cc(/C=C(\F)c4ccc(Cl)cn4)ccc3F)CN(c3ncc(F)cn3)C[C@H]2CS1 [Example 101, (4aR,7aS)-7a-(5-((Z)-2-(5-chloropyridin-2-yl)-2-fluorovinyl)-2-fluorophenyl)-6-(5-fluoropyrimidin-2-yl)-4,4a,5,6,7,7a-hexahydropyrrolo[3,4-d][1,3]thiazin-2-amine] | 1.84 nM | 0.00194 µM | 1.03 nM | 49100 nM | – |

From patent US11548903B2, “Bicyclic thiazine and oxazine derivatives as beta-secretase inhibitors and methods of use” (AMGEN INC., priority 2016, dated 2023)
